Test results published in article PMC11256326, “Discovery of Heparin Mimetic, Potent, and Selective Inhibitors of Human Clotting Factor XIIIa” (ACS Omega, 2024).
Marks after values point to notes of the source that are not given here.

What was measured:
papain = biological target: T1, papain (Carica papaya, UniProt P00784); experiment: papain chromogenic substrate assay; format: biochemical
T1 construct: purchased Sigma Aldrich
T1 sequence (P00784 134-345): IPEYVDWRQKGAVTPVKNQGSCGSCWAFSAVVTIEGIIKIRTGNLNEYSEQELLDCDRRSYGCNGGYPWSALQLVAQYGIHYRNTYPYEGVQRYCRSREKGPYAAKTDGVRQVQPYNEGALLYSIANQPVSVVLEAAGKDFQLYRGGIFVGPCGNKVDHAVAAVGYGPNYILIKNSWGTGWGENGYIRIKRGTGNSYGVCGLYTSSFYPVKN
Excerpt: FXIIIa and TG-2 belong to the same transglutaminase superfamily, and they share similar protein folds with a sequence similarity of 34%. Although we believe that sulfonated heparin mimetics are less likely to distribute to peripheral tissues, we evaluated inhibitor 16′s potential to inhibit TG-2 (we used recombinant TG-2). […] Likewise, we studied the inhibition of papain, a related cysteine protease, by molecule 16.
Direct inhibition of papain, a cysteine protease, by inhibitor 16 was also evaluated using a chromogenic substrate assay on a microplate reader as reported earlier.[36] Briefly, to each well of a 96-well microplate containing 91 μL of 50 mM Tris-HCl buffer, pH 7.4, containing 100 mM NaCl, 2.5 mM CaCl2, 100 mM DTT, 0.1% PEG8000, and 0.02% Tween80 was added 5 μL of inhibitor 16 (0–20 mM) or vehicle, and 3 μL of papain (130 U/mL) at 37 °C. After 5 min incubation, 1 μL of N-α-benzoyl-L-arginine 4-nitroanilide hydrochloride, the chromogenic substrate (17.7 mM) was rapidly added, and the residual enzyme activity was measured from the initial rate of increase in absorbance at 405 nm. Relative residual enzyme activity as a function of the inhibitor concentration was measured and inhibition parameters were calculated using logistic eq 1.

FXIIIa = biological target: T2, FXIIIa (Homo sapiens, UniProt P00488); experiment: Michaelis-Menten kinetics of dansylcadaverine and N,N-dimethylcasein conjugation by human FXIIIa; format: biochemical; settings: for VMAX, dansylcadaverine varied: N,N-dimethylcasein 5 mg/mL; for VMAX, dimethylcasein varied: dansylcadaverine 250 μM
T2 construct: purchased Haematologic Technologies; host or cells: human plasma
T2 sequence (P00488 39-732 limits assumed): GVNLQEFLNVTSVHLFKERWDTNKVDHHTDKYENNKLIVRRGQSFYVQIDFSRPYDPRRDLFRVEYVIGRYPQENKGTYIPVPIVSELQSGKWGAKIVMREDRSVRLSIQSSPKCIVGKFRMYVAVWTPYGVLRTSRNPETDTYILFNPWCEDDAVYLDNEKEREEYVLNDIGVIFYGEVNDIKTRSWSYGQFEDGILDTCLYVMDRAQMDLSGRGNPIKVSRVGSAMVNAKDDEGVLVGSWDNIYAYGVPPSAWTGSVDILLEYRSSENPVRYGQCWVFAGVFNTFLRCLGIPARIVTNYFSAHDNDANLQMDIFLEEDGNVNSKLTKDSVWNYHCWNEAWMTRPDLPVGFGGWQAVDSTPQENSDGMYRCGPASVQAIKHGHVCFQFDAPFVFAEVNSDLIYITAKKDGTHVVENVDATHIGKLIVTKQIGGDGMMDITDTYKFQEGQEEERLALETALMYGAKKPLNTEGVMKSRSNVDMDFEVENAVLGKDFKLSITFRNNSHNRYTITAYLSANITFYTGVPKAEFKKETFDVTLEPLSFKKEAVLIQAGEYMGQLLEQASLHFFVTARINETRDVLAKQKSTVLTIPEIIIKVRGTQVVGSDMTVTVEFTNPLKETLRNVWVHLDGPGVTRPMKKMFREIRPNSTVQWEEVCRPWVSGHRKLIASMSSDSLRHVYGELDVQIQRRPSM
Experimental: To elucidate the FXIIIa inhibitory capacity of compound 16, the kinetics of dansylcadaverine conjugation with dimethylcasein by FXIIIa were investigated with and without the inhibitor using the bisubstrate fluorescence assay.[36],[49],[55] At a fixed, high concentration of dansylcadaverine (250 μM), the initial rate of conjugation increased in a hyperbolic manner with increasing concentration of dimethylcasein (0–15 mg/mL) (Figure 6A) in the presence as well as absence of inhibitor 16. Analysis using the Michaelis equation led to KM values for dimethylcasein of 0.65 ± 0.04 mg/mL (∼29.5 μM) and 7.54 ± 0.90 mg/mL (∼342.7 μM) in the absence and presence of 16, respectively (Table 4). […] To derive kinetic constants for dansylcadaverine, we used a fixed, high concentration of dimethylcasein (5 mg/mL) and studied the initial rate of conjugation, as described above. […] It is important to note that FXIIIa-mediated reaction is a bisubstrate conjugation reaction and its interaction with inhibitor 16 is sensed differently by the two substrates. […] Yet, for both substrates, there was a similar slight decrease (∼1.5-fold) in the VMAX with the same inhibitor concentration. In these experiments inhibitor 16 was used at varying levels, of which the highest concentration ensured that FXIIIa was essentially fully saturated and inhibited.
The initial rate of FXIIIa-mediated conjugation between dansylcadaverine and N,N-dimethylcasein was determined by monitoring the linear increase in fluorescence at λEM = 550 nm (λEX = 360 nm). This initial rate was assessed as a function of various concentrations of either (1) dansylcadaverine (ranging from 0 to 15 mM; resulting effective concentrations in the well were 0–750 μM) at a fixed saturating concentration of dimethylcasein (5 mg/mL), or (2) dimethylcasein (ranging from 0 to 15 mg/mL) at a fixed concentration of dansylcadaverine (5 mM; resulting effective concentration of 250 μM), both in the absence or presence of inhibitor 16 (at concentrations of 0, 0.5, 2.5, 15, and 25 μM). These assays were conducted in 50 mM Tris-HCl buffer at pH 8.0, containing 100 mM NaCl, 1 mM DTT, and 10 mM CaCl2 at 37 °C. The obtained data were fitted using the standard Michaelis–Menten equation (eq 2) to determine the values of KM and VMAX. [drawing 2] 2

Compound: Nc1c(/N=N/c2ccc(S(=O)(=O)CCOS(=O)(=O)O)cc2)c(S(=O)(=O)O)cc2cc(S(=O)(=O)O)c(/N=N/c3ccc(S(=O)(=O)CCOS(=O)(=O)O)cc3)c(O)c12 [compound 16]
- selectivity for FXIIIa over papain (papain): > 200 fold
- papain inhibition at the highest concentration tested (papain; 500 μM): did not inhibit
- mechanism of FXIIIa inhibition (Michaelis–Menten kinetics) (FXIIIa): only competes with the Gln-donor protein substrate
- decrease in VMAX, dansylcadaverine varied (FXIIIa; 16 at 25 μM vs absence): ~1.5 fold
- decrease in VMAX, dimethylcasein varied (FXIIIa; 16 at 25 μM vs absence): ~1.4 fold
- decrease in dansylcadaverine binding affinity (KM increase) (FXIIIa; 16 at 25 μM vs absence): ~2 fold
- decrease in dimethylcasein binding affinity (KM increase) (FXIIIa; 16 at 25 μM vs absence): ~11.6 fold
- VMAX, dansylcadaverine varied (FXIIIa; [16] = 0.5 μM): 111.4 ± 4.1 RFU/min (×10^3)
- VMAX, dimethylcasein varied (FXIIIa; [16] = 0.5 μM): 43.5 ± 2.4 RFU/min (×10^3)
- VMAX, dansylcadaverine varied (FXIIIa; [16] = 2.5 μM): 89.76 ± 3.8 RFU/min (×10^3)
- VMAX, dimethylcasein varied (FXIIIa; [16] = 2.5 μM): 42.0 ± 0.6 RFU/min (×10^3)
- VMAX, dansylcadaverine varied (FXIIIa; [16] = 15 μM): 81.94 ± 4.0 RFU/min (×10^3)
- VMAX, dimethylcasein varied (FXIIIa; [16] = 15 μM): 44.5 ± 1.5 RFU/min (×10^3)
- VMAX, dansylcadaverine varied (FXIIIa; [16] = 25 μM): 69.69 ± 2.9 RFU/min (×10^3)
- VMAX, dimethylcasein varied (FXIIIa; [16] = 25 μM): 34.9 ± 2.0 RFU/min (×10^3)
